The values that follow come from patent US20240352000A1, “NOVEL PYRIMIDINE-2,4-DIAMINE DERIVATIVES, PREPARATION METHOD THEREFOR, AND PHARMACEUTICAL COMPOSITION CONTAINING SAME AS ACTIVE INGREDIENT FOR PREVENTION OR TREATMENT OF CANCER” (KOREA RESEARCH INSTITUTE OF CHEMICAL TECHNOLOGY, priority 2021, published 2024).

Bounds are passed on as bounds.

One assay concerns Ba/F3 EGFR L858R. The assay is described as follows: CellTiter-Glo cell viability, Ba/F3 EGFR L858R. The class given is cell-based. Conditions: 72 hours. The method, then: (§1) An experiment to measure the activity of the compounds of the present invention against the mutant Ba/F3 EGFR cell line was performed as follows using the CellTiter-Glo system sold by Promega. The CellTiter-Glo assay is a method to confirm the cell viability by measuring ATP present in cells in cell culture. The Ba/F3 EGFR L858R, Ba/F3 EGFR L858R/T790M, Ba/F3 EGFR L858R/T790M/C797S mutant cell line was used. The Ba/F3 EGFR L858R, Ba/F3 EGFR L858R/T790M, and Ba/F3 EGFR L858R/T790M/C797S mutant cell lines was cultured in RPMI containing 10% FBS and 1% penicillin-streptomycin with 1 μg of puromycin in an incubator at 37° C. and 5% CO2.
(§2) Analysis of the inhibitory ability effect of the compounds against EGFR was conducted according to the following analysis reaction recipe.
(§3) 2500 cells/90 μl were passaged and cultured in a 96-well cell culture plate, and after 24 hours, treated with the compound represented by Formula 1 at a concentration of 0, 0.01, 0.03, 0.1, 0.3, 1, 3, and 10 (μM). After reaction for 72 hours, the plate treated with the compound was left at room temperature for 30 minutes, then further treated with 100 μl of reagent, and shaken at room temperature for 10 minutes. Finally, the ratio of fluorescence values at 570 nm was obtained using the equipment to quantitatively measure and confirmed the inhibitory ability of the compounds. The measurement values measured at eight compound concentrations were analyzed using the Prism program (version 5.01, Graphpad Software, Inc.), and the IC50 value, which is an indicator of the inhibitory ability of the compound, was calculated.

For another assay, the system named is Ba/F3 EGFR del19/T790M. The assay can be described thus: CellTiter-Glo cell viability, Ba/F3 EGFR del19/T790M. The class given is cell-based. Conditions: 72 hours. The method, then:
(§4) An experiment to measure the activity of the compounds of the present invention against the mutant Ba/F3 EGFR cell line was performed as follows using the CellTiter-Glo system sold by Promega. The CellTiter-Glo assay is a method to confirm the cell viability by measuring ATP present in cells in cell culture. For the Ba/F3 EGFR del19, Ba/F3 EGFR del19/T790M, Ba/F3 del19/T790M/C797S mutant cell line, a cell line provided by Crown Bioscience was purchased and used. The Ba/F3 EGFR del19, Ba/F3 EGFR del19/T790M, Ba/F3 del19/T790M/C797S mutant cell line was cultured in RPMI containing 10% FBS and 1% penicillin-streptomycin with 1 μg of puromycin in an incubator at 37° C. and 5% CO2.
as §2
as §3, with “cells/90 μL” for “cells/90 μl”

Assay [1] relates to Ba/F3 EGFR L858R/T790M/C797S. The assay is described as follows: CellTiter-Glo cell viability, Ba/F3 EGFR L858R/T790M/C797S. Conditions: 72 hours. The assay is classed as cell-based. On the procedure: as §1, §2, §3
For a further assay, the target named is EGFR A763_Y764insFHEA (Homo sapiens (Human), UniProt P00533, INS763FHEA). The assay can be described thus: HTRF enzyme assay, EGFR Ex20 insertion mutant enzyme. The class given is biochemical. To be noted: recombinant enzyme, 37° C. 2 hours. The method, then:
An experiment to measure the activity of the compounds of the present invention against EGFR mutant enzymes was performed as follows using the HTRF system sold by Cisbio. For the EGFR mutant enzyme, EGFR A763_Y764insFHEA enzyme, a recombinant protein provided by SignalChem was purchased and used.
(§5) The composition of the assay buffer used for measuring the activity was 50 mM Tris-HCl pH 7.5, 100 mM NaCl, 7.5 mM MgCl2, 3 mM KCl, 0.01% Tween 20, 0.1% BSA, and 1 mM DTT. Here, an enzyme reaction was performed using ATP at a concentration of […] and a peptide substrate labeled with biotin at a concentration of […]. Analysis of the inhibitory effect of the compounds against the EGFR activity was conducted according to the following analysis reaction recipe. • Component 1: 4 μL of an EGFR mutant enzyme • Component 2: 2 μL of a compound solution • Component 3: 4 μL of ATP and a peptide labeled with biotin
(§6) The enzyme reaction was started by first mixing Component 1 and Component 2 and then adding Component 3. After reaction at 37° C. for 2 hours, […] of measurement solution consisting of streptavidin-XL665 and europium-labeled anti-phosphotyrosine antibody provided by Cisbio was added to the enzyme reaction solution and reacted at room temperature for 1 hour. Finally, the ratio of fluorescence values at 615 nm and 665 nm was obtained using the Envision equipment from Perkin-Elmer to quantitatively measure the enzyme activity and confirmed the inhibitory ability of the compounds. The measurement values measured at seven compound concentrations were analyzed using the Prism program (version 5.01, Graphpad Software, Inc.), and the IC50 value, which is an indicator of the inhibitory ability of the compound, was calculated.

The test system of a further assay is Ba/F3 EGFR L858R/T790M. The assay is described as follows: CellTiter-Glo cell viability, Ba/F3 EGFR L858R/T790M. The class given is cell-based. To be noted: 72 hours. On the procedure: as §1, §2, §3
Assay [2] has as its system Ba/F3 EGFR del19/T790M/C797S. The assay can be described thus: CellTiter-Glo cell viability, Ba/F3 EGFR del19/T790M/C797S. The class given is cell-based. To be noted: 72 hours. The method, then: as §4, §2
as §3, with “cells/90 μL” for “cells/90 μl”

A further assay deals with HER2 A775_G776insYVMA (Homo sapiens (Human), UniProt P04626, INS775YVMA). The assay is described as follows: HTRF enzyme assay, HER2 mutant enzyme. The class given is biochemical. Conditions: recombinant enzyme, 37° C. 2 hours. On the procedure:
An experiment to measure the activity of the compounds of the present invention against HER mutant enzymes was performed as follows using the HTRF system sold by Cisbio. For the HER2 mutant enzyme, HER2 A775_G776insYVMA mutant enzyme, a recombinant protein provided by Carna Biosciences was purchased and used.
as §5, with “performed using with ATP at” for “performed using ATP at”, “substrate labeled biotin at” for “substrate labeled with biotin at”, “against the HER2 A775_G776insYVMA mutant activity was” for “against the EGFR activity was”, “μL of a HER2 A775_G776insYVMA mutant enzyme” for “μL of an EGFR mutant enzyme”
as §6

In assay [3] the test system is Ba/F3 EGFR V769_D770insASV. The assay is described as follows: CellTiter-Glo cell growth, Ba/F3 EGFR Ex20 insertion mutant. The class given is cell-based. To be noted: 72 hours. On the procedure: as §4, with “the” for “the mutant”, “EGFR V769_D770insASV mutant” for “EGFR”, “EGFR V769_D770insASV” for “EGFR del19, Ba/F3 EGFR del19/T790M, Ba/F3 del19/T790M/C797S”, “1 μg/ml” for “1 μg”
Analysis of the inhibitory ability effect of the compounds against the EGFR mutant cell growth was conducted according to the following analysis reaction recipe.
as §3, with “1000 cells/100 μL were passaged” for “2500 cells/90 μl were passaged”, “[…]. After reaction” for “and 10 (μM). After reaction”, “with 100 μL of reagent,” for “with 100 μl of reagent,”, “confirmed the cell growth inhibitory ability” for “confirmed the inhibitory ability”, “of the cell growth inhibitory ability” for “of the inhibitory ability”

A further assay has as its system Ba/F3 EGFR del19. The assay is described as follows: CellTiter-Glo cell viability, Ba/F3 EGFR del19. The class given is cell-based. To be noted: 72 hours. On the procedure:
as §4, §2
as §3, with “cells/90 μL” for “cells/90 μl”

Sequence of EGFR A763_Y764insFHEA (P00533 other isoform, or with tags, fused parts or gaps del 1-694/ins FHEA behind 763 limits assumed): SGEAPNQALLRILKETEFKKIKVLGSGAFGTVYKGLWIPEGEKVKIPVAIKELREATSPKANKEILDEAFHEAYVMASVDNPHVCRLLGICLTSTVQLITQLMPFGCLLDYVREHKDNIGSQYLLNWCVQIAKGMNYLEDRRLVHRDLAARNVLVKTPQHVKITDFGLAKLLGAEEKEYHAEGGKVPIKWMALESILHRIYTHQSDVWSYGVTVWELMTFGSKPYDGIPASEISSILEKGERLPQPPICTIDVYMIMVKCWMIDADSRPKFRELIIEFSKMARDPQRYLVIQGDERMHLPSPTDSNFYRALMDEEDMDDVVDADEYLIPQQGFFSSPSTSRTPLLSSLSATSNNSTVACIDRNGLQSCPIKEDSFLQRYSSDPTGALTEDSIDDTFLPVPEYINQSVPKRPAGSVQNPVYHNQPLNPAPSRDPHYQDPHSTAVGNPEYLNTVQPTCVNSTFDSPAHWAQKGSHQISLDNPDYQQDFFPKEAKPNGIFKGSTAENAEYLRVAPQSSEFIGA
Sequence of HER2 A775_G776insYVMA (P04626 other isoform, or with tags, fused parts or gaps del 1-675/ins YVMA behind 775 limits assumed): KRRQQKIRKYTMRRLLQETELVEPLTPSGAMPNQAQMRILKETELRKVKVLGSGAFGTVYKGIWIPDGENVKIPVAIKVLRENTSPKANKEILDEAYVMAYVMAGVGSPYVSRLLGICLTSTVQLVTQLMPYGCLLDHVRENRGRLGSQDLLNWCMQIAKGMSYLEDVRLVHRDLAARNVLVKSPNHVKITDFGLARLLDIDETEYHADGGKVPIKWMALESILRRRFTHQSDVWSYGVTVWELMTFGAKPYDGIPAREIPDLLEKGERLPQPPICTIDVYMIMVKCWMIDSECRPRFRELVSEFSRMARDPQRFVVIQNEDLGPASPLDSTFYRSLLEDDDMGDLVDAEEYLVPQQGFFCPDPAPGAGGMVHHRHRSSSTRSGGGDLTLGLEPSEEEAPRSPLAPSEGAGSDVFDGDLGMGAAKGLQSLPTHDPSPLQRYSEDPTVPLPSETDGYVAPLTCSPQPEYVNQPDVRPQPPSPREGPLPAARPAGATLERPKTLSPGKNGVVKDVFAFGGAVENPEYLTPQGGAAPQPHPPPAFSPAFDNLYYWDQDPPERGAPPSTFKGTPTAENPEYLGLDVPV

`COc1cc(N2CCC(N3CCN(C)CC3)CC2)ccc1Nc1ncc(Cl)c(Nc2cccc3c2N(C(C)=O)CC3)n1` [Example 12, 1-(7-((5-chloro-2-((2-methoxy-4-(4-(4-methylpiperazin-1-yl)piperidin-1-yl)phenyl)amino)pyrimidin-4-yl)amino)indolin-1-yl)ethan-1-one]: the IC50 with Ba/F3 EGFR L858R was above 100 nM; in the assay on Ba/F3 EGFR del19/T790M, above 100 nM; in assay [1], above 100 nM; at EGFR A763_Y764insFHEA, 178 nM; in the assay on Ba/F3 EGFR L858R/T790M, above 100 nM; in assay [2], above 100 nM. Also, the IC50 is 25 nM at HER2 A775_G776insYVMA, above 100 nM in [3] and below 100 nM with Ba/F3 EGFR del19.

Regarding `CCS(=O)(=O)N1CCc2cccc(Nc3nc(Nc4ccc(N5CCC(N6CCN(C)CC6)CC5)cc4OC)ncc3Cl)c21` [Example 13, 5-chloro-N4-(1-(ethylsulfonyl)indolin-7-yl)-N2-(2-methoxy-4-(4-(4-methylpiperazin-1-yl)piperidin-1-yl)phenyl)pyrimidine-2,4-diamine], the IC50 with Ba/F3 EGFR L858R was above 100 nM; in the assay with Ba/F3 EGFR del19/T790M it was above 100 nM; in assay [1], above 100 nM; at EGFR A763_Y764insFHEA, 91 nM; with Ba/F3 EGFR L858R/T790M, above 100 nM; in assay [2], above 100 nM. Besides, the results for the concentration for half-maximal inhibition (IC50) (at HER2 A775_G776insYVMA; in assay [3]; with Ba/F3 EGFR del19) were 26 nM, above 100 nM and below 100 nM, respectively.

As for `CCC(=O)N1CCc2cccc(Nc3nc(Nc4ccc(N5CCC(N6CCN(C)CC6)CC5)cc4OC)ncc3Cl)c21` [Example 14, 1-(7-((5-chloro-2-((2-methoxy-4-(4-(4-methylpiperazin-1-yl)piperidin-1-yl)phenyl)amino)pyrimidin-4-yl)amino)indolin-1-yl)propan-1-one], the 50% inhibitory concentration (IC50) (with Ba/F3 EGFR L858R; in the assay on Ba/F3 EGFR del19/T790M; in assay [1]; on EGFR A763_Y764insFHEA; in the assay with Ba/F3 EGFR L858R/T790M; in assay [2]) was above 100 nM throughout. The figures for the IC50 (at HER2 A775_G776insYVMA; in assay [3]; in the assay on Ba/F3 EGFR del19) were above 100 nM, above 100 nM and below 100 nM, respectively.

Consider `COc1cc(N2CCC(N3CCN(C)CC3)CC2)ccc1Nc1ncc(Cl)c(Nc2cccc3c2N(C(C)=O)CCC3)n1` [Example 15, 1-(8-((5-chloro-2-((2-methoxy-4-(4-(4-methylpiperazin-1-yl)piperidin-1-yl)phenyl)amino)pyrimidin-4-yl)amino)-3,4-dihydroquinolin-1(2H)-yl)ethan-1-one], for which the IC50 (in the assay with Ba/F3 EGFR L858R; in the assay with Ba/F3 EGFR del19/T790M; in [1]; at EGFR A763_Y764insFHEA; in the assay with Ba/F3 EGFR L858R/T790M; in [2]) was above 100 nM each time. Further, the IC50 at HER2 A775_G776insYVMA is 589 nM; in assay [3], above 100 nM; with Ba/F3 EGFR del19, above 100 nM.

Take `CCC(=O)N1CCCc2cccc(Nc3nc(Nc4ccc(N5CCC(N6CCN(C)CC6)CC5)cc4OC)ncc3Cl)c21` [Example 16, 1-(8-((5-chloro-2-((2-methoxy-4-(4-(4-methylpiperazin-1-yl)piperidin-1-yl)phenyl)amino)pyrimidin-4-yl)amino)-3,4-dihydroquinolin-1(2H)-yl)propan-1-one]: the IC50 (with Ba/F3 EGFR L858R; in the assay on Ba/F3 EGFR del19/T790M; in assay [1]; at EGFR A763_Y764insFHEA; in the assay with Ba/F3 EGFR L858R/T790M; in assay [2]) was above 100 nM throughout. The IC50 (at HER2 A775_G776insYVMA; in assay [3]; in the assay with Ba/F3 EGFR del19) was above 100 nM in each case.

Turning to `COc1cc(N2CCC(N3CCNCC3)CC2)ccc1Nc1ncc(Cl)c(Nc2cccc3c2N(S(C)(=O)=O)CC3)n1` [Example 17, 5-chloro-N2-(2-methoxy-4-(4-(piperazin-1-yl)piperidin-1-yl)phenyl)-N4-(1-(methylsulfonyl)indolin-7-yl)pyrimidine-2,4-diamine], the IC50 is below 100 nM in the assay with Ba/F3 EGFR L858R; below 100 nM in the assay with Ba/F3 EGFR del19/T790M; above 100 nM in assay [1]; 20 nM at EGFR A763_Y764insFHEA; above 100 nM with Ba/F3 EGFR L858R/T790M; above 100 nM in assay [2]. In addition, the values for the half-maximal inhibitory concentration (IC50) (on HER2 A775_G776insYVMA; in assay [3]; in the assay on Ba/F3 EGFR del19) were 4 nM, above 100 nM and below 100 nM, respectively.
